Assay [1] relates to HCV genotype 1a (H77 strain) replicon in HUH-7 cells. Put plainly: HCV replicon luciferase reporter assay, genotype 1a. The class given is cell-based. The conditions noted are these: HCV genotype 1a replicon luciferase, 3 days incubation, read-out: LE_1a (EC50, range). The essentials:
(§1)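 Replicon inhibition for both genotypes was measured as Renilla luciferase signal (EnduRen, 7.5 μM final, 2 h) after 3-day, 37° C exposure of replicon-bearing HUH-7 cells in 4% FCS DMEM, 0.5% DMSO. The 1b construct carries S1179I; the 1a H77 construct carries P1496L and S2204I. Twenty-point, 3-fold dilutions were fitted four-parametrically for EC50, and CC50 was taken from multiplexed Cell Titer-Blue.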
(In antiviral work, replicon cells carry a viral genome segment that copies itself.)

Assay [2] relates to HCV genotype 1b (Con1) replicon in HUH-7 cells. Put plainly: HCV replicon luciferase reporter assay, genotype 1b. It is filed as cell-based. The following applies: HCV genotype 1b replicon luciferase, 3 days incubation, read-out: LE_1b (EC50, range). The essentials: as §1

Structures are written as SMILES. Read-outs that look alike come from different tables or passages of the source.

As for `COc1cc2ccccc2c(O[C@@H]2C[C@H]3C(=O)N[C@]4(C(=O)NS(=O)(=O)C5(CF)CC5)C[C@H]4/C=C\CC[C@@H](C)C[C@@H](C)[C@H](NC(=O)OC(C)(C)C(C)(F)F)C(=O)N3C2)n1` [Compound 6038, 3,3-difluoro-2-methylbutan-2-yl((2R,6S,7R,9R,13aS,14aR,16aS,Z)-14a-(((1-(fluoromethyl)cyclopropyl)sulfonyl)carbamoyl)-2-((3-methoxyisoquinolin-1-yl)oxy)-7,9-dimethyl-5,16-dioxo-1,2,3,5,6,7,8,9,10,11,13a,14,14a,15,16,16a-hexadecahydrocyclopropa[e]pyrrolo[1,2-a][1,4]diazacyclopentadecin-6-yl)carbamate], the EC50 in assay [1] (Hepatitis C virus, Huh-7, 72 h) was below 5.46 nM; in assay [2] (Hepatitis C virus, Huh-7, 72 h), below 5.46 nM.

Consider `C[C@H]1CC/C=C\[C@@H]2C[C@@]2(C(=O)NS(=O)(=O)C2(CF)CC2)NC(=O)[C@@H]2C[C@@H](Oc3nc4c(c5ccccc35)OCCC4)CN2C(=O)[C@@H](NC(=O)OC(C)(C)C(C)(F)F)[C@H](C)C1` [Compound 6039, 3,3-difluoro-2-methylbutan-2-yl((2R,6S,7R,9S,13aS,14aR,16aS,Z)-2-((3,4-dihydro-2H-pyrano[3,2-c]isoquinolin-6-yl)oxy)-14a-(((1-(fluoromethyl)cyclopropyl)sulfonyl)carbamoyl)-7,9-dimethyl-5,16-dioxo-1,2,3,5,6,7,8,9,10,11,13a,14,14a,15,16,16a-hexadecahydrocyclopropa[e]pyrrolo[1,2-a][1,4]diazacyclopentadecin-6-yl)carbamate], for which the EC50 in assay [1] and in assay [2] was 5.01 to 35 nM each time.

Consider `C[C@@H]1CC/C=C\[C@@H]2C[C@@]2(C(=O)NS(=O)(=O)C2(CF)CC2)NC(=O)[C@@H]2C[C@@H](Oc3nc4c(c5ccccc35)OCCC4)CN2C(=O)[C@@H](NC(=O)OC(C)(C)C(C)(F)F)[C@H](C)C1` [Compound 6040, 3,3-difluoro-2-methylbutan-2-yl((2R,6S,7R,9R,13aS,14aR,16aS,Z)-2-((3,4-dihydro-2H-pyrano[3,2-c]isoquinolin-6-yl)oxy)-14a-(((1-(fluoromethyl)cyclopropyl)sulfonyl)carbamoyl)-7,9-dimethyl-5,16-dioxo-1,2,3,5,6,7,8,9,10,11,13a,14,14a,15,16,16a-hexadecahydrocyclopropa[e]pyrrolo[1,2-a][1,4]diazacyclopentadecin-6-yl)carbamate], for which the EC50 in assay [1] was in the range of 1.01 to 5 nM; in assay [2], 0.51 to 1 nM.

Take `C[C@@H]1CC/C=C\[C@@H]2C[C@@]2(C(=O)NS(=O)(=O)C2(CF)CC2)NC(=O)[C@@H]2C[C@@H](Oc3nc4c(c5ccccc35)CCCO4)CN2C(=O)[C@@H](NC(=O)OC(C)(C)C)[C@H](C)C1` [Compound 6042, tert-butyl ((2R,6S,7R,9R,13aS,14aR,16aS,Z)-2-((2,3-dihydro-1H-pyrano[2,3-c]isoquinolin-6-yl)oxy)-14a-(((1-(fluoromethyl)cyclopropyl)sulfonyl)carbamoyl)-7,9-dimethyl-5,16-dioxo-1,2,3,5,6,7,8,9,10,11,13a,14,14a,15,16,16a-hexadecahydrocyclopropa[e]pyrrolo[1,2-a][1,4]diazacyclopentadecin-6-yl)carbamate]: the EC50 in assay [1] (Hepatitis C virus, Huh-7, 72 h) is 1.01 to 5 nM; in assay [2] (Hepatitis C virus, Huh-7, 72 h), 0.51 to 1 nM.

For `C[C@@H]1CC/C=C\[C@@H]2C[C@@]2(C(=O)NS(=O)(=O)C2(C)CC2)NC(=O)[C@@H]2C[C@@H](Oc3nc4c(c5ccccc35)CCCO4)CN2C(=O)[C@@H](NC(=O)OC(C)(C)C)[C@H](C)C1` [Compound 6044, tert-butyl ((2R,6S,7R,9R,13aS,14aR,16aS,Z)-2-((2,3-dihydro-1H-pyrano[2,3-c]isoquinolin-6-yl)oxy)-7,9-dimethyl-14a-(((1-methylcyclopropyl)sulfonyl)carbamoyl)-5,16-dioxo-1,2,3,5,6,7,8,9,10,11,13a,14,14a,15,16,16a-hexadecahydrocyclopropa[e]pyrrolo[1,2-a][1,4]diazacyclopentadecin-6-yl)carbamate], the EC50 in assay [1] (Hepatitis C virus, Huh-7, 72 h) lay within 1.01 to 5 nM; in assay [2] (Hepatitis C virus, Huh-7, 72 h) it was 0.1 to 0.5 nM.

As for `C[C@@H]1CC/C=C\[C@@H]2C[C@@]2(C(=O)NS(=O)(=O)C2(C)CC2)NC(=O)[C@@H]2C[C@@H](Oc3nc4c(c5ccccc35)CCCO4)CN2C(=O)[C@@H](NC(=O)OC(C)(C)C(F)(F)F)[C@H](C)C1` [Compound 6046, 1,1,1-trifluoro-2-methylpropan-2-yl((2R,6S,7R,9R,13aS,14aR,16aS,Z)-2-((2,3-dihydro-1H-pyrano[2,3-c]isoquinolin-6-yl)oxy)-7,9-dimethyl-14a-(((1-methylcyclopropyl)sulfonyl)carbamoyl)-5,16-dioxo-1,2,3,5,6,7,8,9,10,11,13a,14,14a,15,16,16a-hexadecahydrocyclopropa[e]pyrrolo[1,2-a][1,4]diazacyclopentadecin-6-yl)carbamate], the EC50 in assay [1] (Hepatitis C virus, Huh-7, 72 h) fell in the range of 1.01 to 5 nM; in assay [2] (Hepatitis C virus, Huh-7, 72 h), 0.51 to 1 nM.

Regarding `C[C@@H]1CC/C=C\[C@@H]2C[C@@]2(C(=O)NS(=O)(=O)C2(C)CC2)NC(=O)[C@@H]2C[C@@H](Oc3nc4c(c5ccccc35)CCCO4)CN2C(=O)[C@@H](NC(=O)OC(C)(C)C(C)(F)F)[C@H](C)C1` [Compound 6048, 3,3-difluoro-2-methylbutan-2-yl((2R,6S,7R,9R,13aS,14aR,16aS,Z)-2-((2,3-dihydro-1H-pyrano[2,3-c]isoquinolin-6-yl)oxy)-7,9-dimethyl-14a-(((1-methylcyclopropyl)sulfonyl)carbamoyl)-5,16-dioxo-1,2,3,5,6,7,8,9,10,11,13a,14,14a,15,16,16a-hexadecahydrocyclopropa[e]pyrrolo[1,2-a][1,4]diazacyclopentadecin-6-yl)carbamate], the EC50 in assay [1] (Hepatitis C virus, Huh-7, 72 h) fell in the range of 1.01 to 5 nM; in assay [2] (Hepatitis C virus, Huh-7, 72 h) it was 0.1 to 0.5 nM.

As to `C[C@@H]1CC/C=C\[C@@H]2C[C@@]2(C(=O)NS(=O)(=O)C2(CF)CC2)NC(=O)[C@@H]2C[C@@H](Oc3nc4c(c5ccccc35)CCCO4)CN2C(=O)[C@@H](NC(=O)OC(C)(C)C(F)(F)F)[C@H](C)C1` [Compound 6050, 1,1,1-trifluoro-2-methylpropan-2-yl((2R,6S,7R,9R,13aS,14aR,16aS,Z)-2-((2,3-dihydro-1H-pyrano[2,3-c]isoquinolin-6-yl)oxy)-14a-(((1-(fluoromethyl)cyclopropyl)sulfonyl)carbamoyl)-7,9-dimethyl-5,16-dioxo-1,2,3,5,6,7,8,9,10,11,13a,14,14a,15,16,16a-hexadecahydrocyclopropa[e]pyrrolo[1,2-a][1,4]diazacyclopentadecin-6-yl)carbamate], the EC50 in assay [1] (Hepatitis C virus, Huh-7, 72 h) was in the range of 1.01 to 5 nM; in assay [2] (Hepatitis C virus, Huh-7, 72 h) it was 0.1 to 0.5 nM.

In the case of `C[C@@H]1CC/C=C\[C@@H]2C[C@@]2(C(=O)NS(=O)(=O)C2(CF)CC2)NC(=O)[C@@H]2C[C@@H](Oc3nc4c(c5ccccc35)CCCO4)CN2C(=O)[C@@H](NC(=O)OC(C)(C)C(C)(F)F)[C@H](C)C1` [Compound 6052, 3,3-difluoro-2-methylbutan-2-yl((2R,6S,7R,9R,13aS,14aR,16aS,Z)-2-((2,3-dihydro-1H-pyrano[2,3-c]isoquinolin-6-yl)oxy)-14a-(((1-(fluoromethyl)cyclopropyl)sulfonyl)carbamoyl)-7,9-dimethyl-5,16-dioxo-1,2,3,5,6,7,8,9,10,11,13a,14,14a,15,16,16a-hexadecahydrocyclopropa[e]pyrrolo[1,2-a][1,4]diazacyclopentadecin-6-yl)carbamate], the EC50 in assay [1] (Hepatitis C virus, Huh-7, 72 h) lay in the range of 5.01 to 35 nM; in assay [2] (Hepatitis C virus, Huh-7, 72 h), 0.1 to 0.5 nM.

With `CC[C@@H]1C[C@H](C)CC/C=C\[C@@H]2C[C@@]2(C(=O)NS(=O)(=O)C2(C)CC2)NC(=O)[C@@H]2C[C@@H](Oc3nc4c(c5ccccc35)CCCO4)CN2C(=O)[C@H]1NC(=O)OC(C)(C)C(F)(F)F` [Compound 6054, 1,1,1-trifluoro-2-methylpropan-2-yl((2R,6S,7R,9R,13aS,14aR,16aS,Z)-2-((2,3-dihydro-1H-pyrano[2,3-c]isoquinolin-6-yl)oxy)-7-ethyl-9-methyl-14a-(((1-methylcyclopropyl)sulfonyl)carbamoyl)-5,16-dioxo-1,2,3,5,6,7,8,9,10,11,13a,14,14a,15,16,16a-hexadecahydrocyclopropa[e]pyrrolo[1,2-a][1,4]diazacyclopentadecin-6-yl)carbamate], the concentration for a half-maximal effect (EC50) in assay [1] (Hepatitis C virus, Huh-7, 72 h) lay in the range of 1.01 to 5 nM; in assay [2] (Hepatitis C virus, Huh-7, 72 h), 0.1 to 0.5 nM.

Consider `CC[C@@H]1C[C@H](C)CC/C=C\[C@@H]2C[C@@]2(C(=O)NS(=O)(=O)C2(C)CC2)NC(=O)[C@@H]2C[C@@H](Oc3nc4c(c5ccccc35)CCCO4)CN2C(=O)[C@H]1NC(=O)OC(C)(C)C(C)(F)F` [Compound 6056, 3,3-difluoro-2-methylbutan-2-yl((2R,6S,7R,9R,13aS,14aR,16aS,Z)-2-((2,3-dihydro-1H-pyrano[2,3-c]isoquinolin-6-yl)oxy)-7-ethyl-9-methyl-14a-(((1-methylcyclopropyl)sulfonyl)carbamoyl)-5,16-dioxo-1,2,3,5,6,7,8,9,10,11,13a,14,14a,15,16,16a-hexadecahydrocyclopropa[e]pyrrolo[1,2-a][1,4]diazacyclopentadecin-6-yl)carbamate], for which the EC50 in assay [1] (Hepatitis C virus, Huh-7, 72 h) fell in the range of 1.01 to 5 nM; in assay [2] (Hepatitis C virus, Huh-7, 72 h), 0.1 to 0.5 nM.

For `C[C@@H]1CC/C=C\[C@@H]2C[C@@]2(C(=O)NS(=O)(=O)C2(C)CC2)NC(=O)[C@@H]2C[C@@H](Oc3nccc4c5c(ccc34)CCCO5)CN2C(=O)[C@@H](NC(=O)OC(C)(C)C(F)(F)F)[C@H](C)C1` [Compound 6058, 1,1,1-trifluoro-2-methylpropan-2-yl((2R,6S,7R,9R,13aS,14aR,16aS,Z)-2-((3,4-dihydro-2H-pyrano[2,3-f]isoquinolin-7-yl)oxy)-7,9-dimethyl-14a-(((1-methylcyclopropyl)sulfonyl)carbamoyl)-5,16-dioxo-1,2,3,5,6,7,8,9,10,11,13a,14,14a,15,16,16a-hexadecahydrocyclopropa[e]pyrrolo[1,2-a][1,4]diazacyclopentadecin-6-yl)carbamate], the EC50 in assay [1] (Hepatitis C virus, Huh-7, 72 h) lay within 1.01 to 5 nM; in assay [2] (Hepatitis C virus, Huh-7, 72 h), 0.51 to 1 nM.

By EC50 is commonly meant the concentration that produces a half-maximal response.
